Common to all, as to experiment: NCI-60 cell line screen, 48 h
Experiment [1] relates to HCT-116 colon.
In experiment [2] the test system is RPMI-8226 leukemia.
Experiment [3] concerns TK-10 renal.
For experiment [4], the system named is UACC-257 melanoma.
For experiment [5], the system named is RXF 393 renal.
In experiment [6] the test system is HT29 colon.
The subject of experiment [7] is A549 NSCLC.
For experiment [8], the system named is SK-MEL-2 melanoma.
Experiment [9] relates to LOX IMVI melanoma.
For experiment [10], the system named is SW-620 colon.
The subject of experiment [11] is A498 renal.
Experiment [12] has as its system SF-539 CNS.
The subject of experiment [13] is M14 melanoma.

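Cells were grown in 96-well plates and exposed to each compound for 48 hours at five concentrations; endpoints were interpolated linearly between bracketing concentrations, or set to the highest concentration if not reached. TGI is the concentration that stops growth completely.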

Consider `COC1=C(OC)C(=O)C(C/C=C/c2c(Cl)nc3sccn23)=C(C)C1=O`, for which the TGI in [1] was 33.5 µM; in experiment [2] it was 27.5 µM; in experiment [3] it was 34.9 µM; in [4], 5.36 µM; in experiment [5], 37.5 µM; in experiment [6], 46.9 µM. The TGI in [7] is 33.3 µM; in [8] it was 48.3 µM; in experiment [9] it was 12.1 µM; in experiment [10], 46 µM; in experiment [11], 48.2 µM; in experiment [12], 31.7 µM. Besides, the TGI in experiment [13] amounted to 32.5 µM.

On to `CC1=C(N2CC2)C(=O)C(C)=C(N2CC2)C1=O`, for which the TGI in [1] worked out at 19.3 µM; in experiment [2], 9.8 µM; in experiment [3], 1.5 µM; in experiment [4], 2.77 µM; in experiment [5], 0.329 µM; in experiment [6], 1 µM. Also, the TGI in [7] is 75.7 µM; in [8] it was 1.39 µM; in [9], 1.38 µM; in [10], 3.41 µM; in [11], 0.403 µM; in [12] it was 0.808 µM. For the same compound, the TGI in [13] is 1.25 µM.

For the compound `COc1ccccc1NC(=O)C(=O)C(c1cnc2ccc([N+](=O)[O-])cc2n1)[N+](=O)[O-]` (centres undefined), the TGI in experiment [1], in experiment [2], in experiment [3], in [4], in experiment [5] and in experiment [6] was above 100 µM throughout. The TGI in [7], in experiment [8], in experiment [9], in experiment [10], in experiment [11] and in experiment [12] was above 100 µM each time. In experiment [13], this compound gave a TGI above 100 µM.

Take `CC(C)(C)c1cc(OCc2n[nH]c(=S)n2N)c(Cl)cc1OCc1n[nH]c(=S)n1N`: the TGI in experiment [1], in experiment [2], in [3], in experiment [4], in experiment [5] and in [6] was above 100 µM throughout. Besides, the TGI in [7] was above 100 µM; in experiment [8], 43 µM; in experiment [9], above 100 µM; in [10], above 100 µM; in experiment [11] it was above 100 µM; in experiment [12], above 100 µM. In experiment [13], the TGI is above 100 µM.

Regarding `CC(c1ccccc1)n1c2ccccc2c2c(N)ncnc21` (centres undefined), the TGI in [1] is 38.5 µM; in experiment [2], 74.5 µM; in experiment [3] it was 34.9 µM; in experiment [4], 31.2 µM; in experiment [5], 33.5 µM; in experiment [6], 31.6 µM. The TGI turned out to be 46.3 µM in experiment [7]; 45.3 µM in experiment [8]; 33.1 µM in [9]; 47.4 µM in [10]; 30.3 µM in experiment [11]; 30.8 µM in experiment [12]. The compound further returned a TGI in experiment [13] of 34.1 µM.

Consider `CCOC(=O)C(CCSC)(CCSC)C(=O)OCC`, for which the TGI in [1], in experiment [2], in experiment [3], in experiment [4], in [5] and in [6] was above 100 µM throughout. The TGI in experiment [7], in experiment [8], in [9], in experiment [10], in [11] and in experiment [12] was above 100 µM each time. Moreover, in experiment [13], the TGI was above 100 µM.

With `CSc1c(S(C)=O)c2ccccc2n1C` (centres undefined), the TGI in experiment [1], in [2], in [3], in experiment [4], in experiment [5] and in experiment [6] was above 100 µM throughout. Further, the TGI in experiment [7], in experiment [8], in experiment [9], in experiment [10], in experiment [11] and in [12] was above 100 µM each time. The same compound registered a TGI in [13] above 100 µM.

On to `CC(=O)O[C@H]1C(=O)[C@@]2(C)[C@H]([C@H](OC(=O)c3ccccc3)[C@]3(O)C[C@H](OC(=O)[C@H](O)[C@@H](NC(=O)OC(C)(C)C)c4ccco4)C(C)=C1C3(C)C)[C@]1(OC(C)=O)CO[C@@H]1C[C@@H]2O`, for which the TGI in experiment [1] is 17.5 µM; in [2], above 28.2 µM; in experiment [3], 29 µM; in experiment [4], above 47.2 µM; in experiment [5], 0.0338 µM; in [6], 0.24 µM. Besides, the TGI in [7] was above 50 µM; in experiment [8], 10.9 µM; in experiment [9], 22.3 µM; in experiment [10], above 50 µM; in experiment [11] it was 22.7 µM; in experiment [12], 0.0138 µM. The same compound showed a TGI in [13] of 25.2 µM.

These data come from PubChem BioAssay (NCI).
